Measurements: patent US11214803B2, “Modulators of YAP1 expression” (Ionis Pharmaceuticals, Inc., priority 2019, dated 2022)
Strand notation (5' to 3'): a small letter for the sugar, then the base; units joined by * are phosphorothioate-linked, units joined directly phosphodiester-linked; [ ] holds rarer units or linkages, { } end groups; capitals alone tell only the bases. k = constrained ethyl (cEt); [5mC] = 5-methylcytosine; d = 2'-deoxy (DNA)

Legend:
Yap1 mRNA [1] = experiment: Inhibition of human Yap1 mRNA in SNU449 hepatocellular carcinoma xenograft tumors (Example 26); type: in vivo; settings: SNU449 xenografts in NSG mice, 50 mg/kg twice weekly for five days, relative to PBS treated animals
In short: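 Female NSG mice bearing subcutaneous SNU449 xenografts (about 100 mm^3) dosed with modified oligonucleotides at 50 mg/kg twice weekly for five days, four per group. Tumour Yap1 mRNA measured by RT-qPCR, normalized to actin-beta, expressed as % of PBS-treated controls.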

Yap1 mRNA [2] = experiment: Dose-dependent inhibition of human Yap1 in A-431 cells (Example 24, 11,000 cells per well, RTS36584, normalized to GAPDH); type: cell-based; settings: free uptake, 48 hours; for Yap1 mRNA, % UTC: RTS36584, normalized to GAPDH; for IC50: linear regression on a log/linear plot
Method: Modified oligonucleotides described in the studies above were tested at various doses in A-431 cells. Cultured A-431 cells at a density of 11,000 cells per well were treated using free uptake with modified oligonucleotides diluted to concentrations described in the tables below. After approximately 48 hours, Yap1 mRNA levels were measured as previously described using the Human Yap1 primer-probe set RTS36584. Yap1 mRNA levels were normalized to GAPDH content, as measured by primer probe set RTS104 (forward sequence […], designated herein as SEQ ID NO.: 17; reverse sequence […], designated herein as SEQ ID NO.: 18; probe sequence […], designated herein as SEQ ID NO.: 19). Results are presented in the tables below as percent control of the amount of Yap1 mRNA relative to untreated control cells (% UTC). IC50s were calculated using a linear regression on a log/linear plot of the data in excel.

SCC25 cells = experiment: Cell proliferation assay in SCC25 cells, CellTiter-Glo (Example 25); type: cell-based, human; settings: free uptake, 144 hours
Method: Modified oligonucleotides described in the studies above were tested at various doses in squamous cell carcinoma cell SCC25. A control oligonucleotide 792169 (a 3-10-3 cET gapmer with a full phosphorothioate backbone, […], designated herein as SEQ ID No.: 2940; is not complementary to any known human gene) was also tested.
Cultured SCC25 cells at a density of 1,000 cells/well were treated using free uptake with modified oligonucleotides diluted to concentrations described in the tables below. After approximately 144 hours, cell proliferation was measured using the luminescent cell viability CellTiter-Glo® 2.0 Assay (Promega). Results are presented in the tables below as percent control of the amount of luminescence in samples treated with modified oligonucleotides relative to untreated control cells (% UTC).

Yap1 mRNA [3] = experiment: Inhibition of human Yap1 mRNA in squamous cell carcinoma CAL27 xenograft tumors (Example 28); type: in vivo; settings: CAL27 xenografts in NCr-Foxn1nu mice, relative to PBS treated
Method: A squamous cell carcinoma CAL27 xenograft tumor model was used to evaluate activity of modified oligonucleotides targeted to human Yap1. Five million CAL27 cells in 30% matrigel were implanted subcutaneously into the flanks of female CrTac:NCr-Foxn1nu mice (from Taconic) at 4-6 weeks of age. Groups of four mice each were administered with either 15 mg/kg or 30 mg/kg of modified oligonucleotides daily for five days after tumor size had reached ˜100 mm^3 (about 3 weeks post implantation). Tumors were collected and tested for Yap1 mRNA knockdown by RT-qPCR. Yap1 mRNA levels were measured as previously described using the Human Yap1 primer-probe set RTS4814. Yap1 mRNA levels were normalized to actin-beta content, as measured by primer probe set RTS5002. Results are presented in the tables below as percent control of the amount of Yap1 mRNA relative to PBS treated […].

[4] = Cynomolgus monkey tolerability, body and organ weight measurements (Example 34); type: in vivo; settings: cynomolgus monkeys, 35 mg/kg subcutaneously; for Heart weight / Kidney weight / Liver with gallbladder weight / Spleen weight: necropsy; for Terminal Body Weight: prior to necropsy
Method: Cynomolgus monkeys were treated with Ionis modified oligonucleotides selected from studies described in the Examples above. Modified oligonucleotide tolerability was evaluated.
During the study period, the monkeys were observed twice daily for signs of illness or distress. Any animal experiencing more than momentary or slight pain or distress due to the treatment, injury or illness was treated by the veterinary staff with approved analgesics or agents to relieve the pain after consultation with the Study Director. Any animal in poor health or in a possible moribund condition was identified for further monitoring and possible euthanasia. Scheduled euthanasia of the animals was conducted on day 86 approximately 48 hours after the last dose by exsanguination while under deep anesthesia. The protocols described in the Example were approved by the Institutional Animal Care and Use Committee (IACUC).
To evaluate the effect of Ionis oligonucleotides on the overall health of the animals, body and organ weights were measured. Terminal body weight was measured prior to necropsy.

[5] = Cynomolgus monkey tolerability, coagulation (Example 34); type: in vivo; settings: cynomolgus monkeys, 35 mg/kg subcutaneously, day 44
Method: To evaluate effect of Ionis modified oligonucleotides on coagulation in cynomolgus monkeys, blood samples of approximately 0.9 mL were collected from each of the available study animals on day 44. The samples were collected in tubes containing 3.2% sodium citrate. Coagulation parameters tested include Activated partial thromboplastin time (APTT), prothrombin time (PT) and Figrinogen (FIB).

[6] = cynomolgus monkey, in vivo, sc, 35 mg/kg
Method: Prior to the study, the monkeys were kept in quarantine during which the animals were observed daily for general health. The monkeys were 2-4 years old and weighed 2-4 kg. Eleven groups of 4 randomly assigned male cynomolgus monkeys each were injected subcutaneously with Ionis oligonucleotide or saline in a clock-wise rotation between four different sites on the back. Following loading doses on days 1, 3, 5 and 7, the monkeys were dosed once per week (on days 14, 21, 28, 35, and 42) with 35 mg/kg of Ionis oligonucleotide.
To evaluate the effect of Ionis oligonucleotides on hepatic and kidney function, blood samples were collected from all the study groups on day 44. The monkeys were fasted overnight prior to blood collection. Blood was collected in tubes without anticoagulant for serum separation. The tubes were kept at room temperature for a minimum of 90 minutes and then centrifuged at 3000 rpm for 10 minutes to obtain serum. Levels of various liver function markers were measured using a Toshiba 200FR NEO chemistry analyzer (Toshiba Co., Japan).

[7] = Tolerability in Sprague-Dawley rats, body and organ weights (Example 22); type: in vivo; settings: male Sprague-Dawley rats, 50 mg/kg s.c. weekly for 6 weeks (7 doses)
Method: Terminal body weight was measured prior to necropsy. Ionis oligonucleotides that caused any changes in organ weights outside the expected range for modified oligonucleotides were excluded from further studies.

Substance	Yap1 mRNA in tumors, % control (Yap1 mRNA [1])	Yap1 mRNA, % UTC (Yap1 mRNA [2]; 0.002 μM)	Yap1 mRNA, % UTC (Yap1 mRNA [2]; 0.008 μM)	Yap1 mRNA, % UTC (Yap1 mRNA [2]; 0.04 μM)	Yap1 mRNA, % UTC (Yap1 mRNA [2]; 0.2 μM)	Yap1 mRNA, % UTC (Yap1 mRNA [2]; 1 μM)	cell proliferation (luminescence) % UTC (SCC25 cells; 0.04 μM)	cell proliferation (luminescence) % UTC (SCC25 cells; 0.2 μM)	cell proliferation (luminescence) % UTC (SCC25 cells; 1 μM)	cell proliferation (luminescence) % UTC (SCC25 cells; 5 μM)	Yap1 mRNA in tumors, % UTC (Yap1 mRNA [3]; 15 mg/kg daily for five days)	Yap1 mRNA in tumors, % UTC (Yap1 mRNA [3]; 30 mg/kg daily for five days)	Heart weight [4]	Kidney weight [4]	Liver with gallbladder weight [4]	Spleen weight [4]	Terminal Body Weight [4]	APTT [5]	FIB [5]	PT [5]	further results
715487 (kA*kT*kT*dA*d[5mC]*dT*dT*d[5mC]*dA*dT*dA*dG*d[5mC]*kT*kT*kA) [compound 715487]	61 % control	–	–	–	–	–	–	–	–	–	–	–	–	–	–	–	–	–	–	–	–
1076453 (GTAATATTGCAATCTG; 3-10-3 cEt gapmer, further chemistry not given here) [compound 1076453]	56 % control	0 % UTC	1 % UTC	23 % UTC	74 % UTC	89 % UTC	81 % UTC	40 % UTC	23 % UTC	15 % UTC	69 % UTC	46 % UTC	11 g	16 g	72 g	5 g	2955 g	20 s	234 mg/dL	9 s	A/G ratio [6]: 1.3
958499 (ATTAGAGTATGTGGCA; 3-10-3 cEt gapmer, further chemistry not given here) [compound 958499]	54 % control	1 % UTC	3 % UTC	28 % UTC	91 % UTC	117 % UTC	76 % UTC	42 % UTC	25 % UTC	14 % UTC	68 % UTC	53 % UTC	10 g	15 g	68 g	4 g	2894 g	18 s	275 mg/dL	9 s	IC50 (Yap1 mRNA [2]): 30 nM; A/G ratio [6]: 1.3
1198728 (TATTAGAGTATGTGGC; modified gapmer, further chemistry not given here) [compound 1198728]	64 % control	1 % UTC	4 % UTC	27 % UTC	85 % UTC	87 % UTC	88 % UTC	61 % UTC	30 % UTC	20 % UTC	77 % UTC	56 % UTC	10 g	15 g	65 g	5 g	2722 g	18 s	242 mg/dL	9 s	Kidney weight ([7]; end of study): 2.9 g; Liver weight ([7]; end of study): 15 g; Spleen weight ([7]; end of study): 1.4 g; body weight ([7]; terminal, prior to necropsy): 381 g; IC50 (Yap1 mRNA [2]): 20 nM; A/G ratio [6]: 1.3
1198439 (AGTGTATGTCAGAAGA; sugar, 5-methylcytosine, phosphorothioate modifications, further chemistry not given here) [compound 1198439]	51 % control	0 % UTC	1 % UTC	11 % UTC	65 % UTC	93 % UTC	62 % UTC	30 % UTC	22 % UTC	16 % UTC	66 % UTC	38 % UTC	10 g	15 g	67 g	3 g	2959 g	19 s	246 mg/dL	10 s	IC50 (Yap1 mRNA [2]): 20 nM; A/G ratio [6]: 1.4
1198440 (AAGTGTATGTCAGAAG; cEt, 2'-MOE, 5-methylcytosine, phosphorothioate modifications, further chemistry not given here) [compound 1198440]	51 % control	0 % UTC	1 % UTC	14 % UTC	69 % UTC	96 % UTC	73 % UTC	33 % UTC	22 % UTC	16 % UTC	67 % UTC	41 % UTC	11 g	15 g	65 g	3 g	2919 g	20 s	260 mg/dL	10 s	IC50 (Yap1 mRNA [2]): 20 nM; A/G ratio [6]: 1.4
CGCCGATAAGGTACAC (cEt gapmer, phosphorothioate backbone, further chemistry not given here) [ION 792169, reference compound]	–	–	–	–	–	–	103 % UTC	104 % UTC	100 % UTC	88 % UTC	–	–	–	–	–	–	–	–	–	–	–
